Laboratory results published in EP0908457B1, “3-(1,2-benzisothiazol- and isoxazol-5-Y1)-2,4(1H,3H)-pyrimidinedione or thione and 3-(1,2-benzisothiazol- and isoxazol-5-y1)-4(3H)-pyrimidinone or thione herbicidal agents” (BASF AKTIENGESELLSCHAFT, priority 1997, dated 1999).

Tests used:
Assay type in all cases: in vivo
[1] = tested on: Cyperus serotinus, Rottb.; assay: Preemergence weed control under flooded paddy conditions, CYPSE (Flatsedge); conditions: for CYPSE: herbicidal effect rating 0-9, three to four weeks after treatment; on herbicidal effect rating, CYPSE: meaning of each grade not given here
Sagittaria pygmaea, L. = assay: Preemergence weed control under flooded paddy conditions, SAGPY (Arrowhead (Pygmaea)); conditions: flooded paddy; for SAGPY: herbicidal effect rating 0-9, three to four weeks after treatment; on herbicidal effect rating, SAGPY: meaning of each grade not given here
[2] = tested on: Monochoria vaginalis, Presl.; assay: Preemergence weed control under flooded paddy conditions, MOOVA (Monochoria); conditions: flooded paddy; for MOOVA: herbicidal effect rating 0-9, three to four weeks after treatment; on herbicidal effect rating, MOOVA: meaning of each grade not given here
[3] = tested on: Echinochloa oryzoides (Ard.) Fritsch.; assay: Preemergence weed control under flooded paddy conditions, ECHORC (Watergrass (Calif.)); conditions: flooded paddy; for ECHORC: herbicidal effect rating 0-9, three to four weeks after treatment; on herbicidal effect rating, ECHORC: meaning of each grade not given here
Cyperus iria = assay: Preemergence weed control under flooded paddy conditions, CYPIR (Rice Flatsedge); conditions: flooded paddy; for CYPIR: herbicidal effect rating 0-9, three to four weeks after treatment; on herbicidal effect rating, CYPIR: meaning of each grade not given here
[4] = 0.2500 kg/ha, preemergence, rated three to four weeks after treatment
[5] = 0.0320 kg/ha, preemergence, rated three to four weeks after treatment
[6] = 0.0620 kg/ha, preemergence, rated three to four weeks after treatment
[7] = 0.1250 kg/ha, preemergence, rated three to four weeks after treatment
[8] = 0.0620 kg/ha, preemergence weeds
[9] = 0.2500 kg/ha, preemergence weeds
[10] = 0.0320 kg/ha, preemergence weeds
[11] = 0.1250 kg/ha, preemergence weeds
[12] = Rate 0.0320 kg/ha, preemergence, rated three to four weeks after treatment
[13] = Rate 0.0620 kg/ha, preemergence, rated three to four weeks after treatment
[14] = Rate 0.1250 kg/ha, preemergence, rated three to four weeks after treatment
[15] = Rate 0.2500 kg/ha, preemergence, rated three to four weeks after treatment
[16] = 0.0313 kg/ha, preemergence weeds, rated three to four weeks after treatment
[17] = 0.0625 kg/ha, preemergence weeds, rated three to four weeks after treatment
[18] = 0.1250 kg/ha, preemergence weeds, rated three to four weeks after treatment
[19] = 0.2500 kg/ha, preemergence weeds, rated three to four weeks after treatment
[20] = Rate 0.0320 kg/ha, preemergence, rated 3-4 weeks after treatment
[21] = Rate 0.0620 kg/ha, preemergence, rated 3-4 weeks after treatment
[22] = Rate 0.1250 kg/ha, preemergence, rated 3-4 weeks after treatment
[23] = Rate 0.2500 kg/ha, preemergence, rated 3-4 weeks after treatment

`Cn1c(C(F)(F)F)cc(=O)n(-c2ccc3snc(COC(=O)c4ccc(Cl)nc4)c3c2)c1=O` [Example 481, 2,4(1H,3H)-Pyrimidinedione, 3-[3-(hydroxymethyl)-1,2-benzisothiazol-5-yl]-1-methyl-6-(trifluoromethyl)-, 6-chloronicotinate (ester)] was tested, and the CYPSE herbicidal rating [1, 4] was 6.0, the SAGPY herbicidal rating (Sagittaria pygmaea, L.; [5]) was 0.0 and the SAGPY herbicidal rating (Sagittaria pygmaea, L.; [6]) was 0.0. For the same compound, the SAGPY herbicidal rating (Sagittaria pygmaea, L.; [7]) was 0.0, the MOOVA herbicidal rating [2, 5] was 6.0 and the MOOVA herbicidal rating [2, 6] was 7.0. It also gave an MOOVA herbicidal rating [2, 7] of 7.0, an MOOVA herbicidal rating [2, 4] of 9.0 and an ECHORC herbicidal rating [3, 5] of 0.0. For the same compound, the ECHORC herbicidal rating [3, 6] was 2.0, the ECHORC herbicidal rating [3, 7] was 9.0 and the ECHORC herbicidal rating [3, 4] was 9.0. The CYPIR herbicidal rating (Cyperus iria; [5]) was 0.0, the CYPIR herbicidal rating (Cyperus iria; [6]) was 2.0 and the CYPIR herbicidal rating (Cyperus iria; [7]) was 6.0. The CYPIR herbicidal rating (Cyperus iria; [4]) was 9.0.
`Cn1c(C(F)(F)F)cc(=O)n(-c2ccc3snc(COC(=O)Cc4cccs4)c3c2)c1=O` [Example 451, 2,4(1H,3H)-Pyrimidinedione, 3-[3-(hydroxymethyl)-1,2-benzisothiazol-5-yl]-1-methyl-6-(trifluoromethyl)-, 2-thienylacetate (ester)] was tested, and the CYPSE [1, 8] was 0.0, the CYPSE [1, 9] was 0.0 and the SAGPY (Sagittaria pygmaea, L.; [10]) was 4.0. The SAGPY (Sagittaria pygmaea, L.; [8]) was 5.0, the SAGPY (Sagittaria pygmaea, L.; [11]) was 6.0 and the SAGPY (Sagittaria pygmaea, L.; [9]) was 9.0. It also gave an MOOVA [2, 10] of 9.0, an MOOVA [2, 8] of 9.0 and an MOOVA [2, 11] of 9.0. For the same compound, the MOOVA [2, 9] was 9.0, the ECHORC [3, 10] was 0.0 and the ECHORC [3, 8] was 0.0. It also gave an ECHORC [3, 11] of 6.0, an ECHORC [3, 9] of 7.0 and a CYPIR (Cyperus iria; [10]) of 5.0. The CYPIR (Cyperus iria; [8]) was 5.0, the CYPIR (Cyperus iria; [11]) was 7.0 and the CYPIR (Cyperus iria; [9]) was 9.0.
`Cn1c(C(F)(F)F)cc(=O)n(-c2ccc3snc(C(=O)NOCc4ccccc4)c3c2)c1=O` [Example 400, 1,2-Benzisothiazole-3-carboxamide, N-(benzyloxy)-5-[3,6-dihydro-3-methyl-2,6-dioxo-4-(trifluoromethyl)-1(2H)-pyrimidinyl]-] was tested, and the “herbicidal effect rating, CYPSE” value [1, 12] was 0.0, the “herbicidal effect rating, CYPSE” value [1, 13] was 0.0 and the “herbicidal effect rating, CYPSE” value [1, 14] was 0.0. The “herbicidal effect rating, CYPSE” value [1, 15] was 0.0, the “herbicidal effect rating, SAGPY” value (Sagittaria pygmaea, L.; [12]) was 0.0 and the “herbicidal effect rating, SAGPY” value (Sagittaria pygmaea, L.; [13]) was 0.0. The “herbicidal effect rating, SAGPY” value (Sagittaria pygmaea, L.; [14]) was 0.0, the “herbicidal effect rating, SAGPY” value (Sagittaria pygmaea, L.; [15]) was 0.0 and the “herbicidal effect rating, MOOVA” value [2, 12] was 6.0. The “herbicidal effect rating, MOOVA” value [2, 13] was 7.0, the “herbicidal effect rating, MOOVA” value [2, 14] was 7.0 and the “herbicidal effect rating, MOOVA” value [2, 15] was 9.0. The “herbicidal effect rating, ECHORC” value [3, 12] was 0.0, the “herbicidal effect rating, ECHORC” value [3, 13] was 0.0 and the “herbicidal effect rating, ECHORC” value [3, 14] was 0.0. For the same compound, the “herbicidal effect rating, ECHORC” value [3, 15] was 0.0, the “herbicidal effect rating, CYPIR” value (Cyperus iria; [12]) was 3.0 and the “herbicidal effect rating, CYPIR” value (Cyperus iria; [13]) was 3.0. The “herbicidal effect rating, CYPIR” value (Cyperus iria; [14]) was 9.0 and the “herbicidal effect rating, CYPIR” value (Cyperus iria; [15]) was 9.0.
`Cn1c(C(F)(F)F)cc(=O)n(-c2ccc3snc(COC(=O)c4cc(Cl)nc(Cl)c4)c3c2)c1=O` [Example 474, 2,4(1H,3H)-Pyrimidinedione, 3-[3-(hydroxymethyl)-1,2-benzisothiazol-5-yl]-1-methyl-6-(trifluoromethyl)-, 2,6-dichloroisonicotinate (ester)] was tested, and the CYPSE herbicidal rating [1, 5] was 0.0, the CYPSE herbicidal rating [1, 6] was 0.0 and the CYPSE herbicidal rating [1, 7] was 0.0. The CYPSE herbicidal rating [1, 4] was 0.0, the SAGPY herbicidal rating (Sagittaria pygmaea, L.; [5]) was 0.0 and the SAGPY herbicidal rating (Sagittaria pygmaea, L.; [6]) was 0.0. The SAGPY herbicidal rating (Sagittaria pygmaea, L.; [7]) was 0.0, the SAGPY herbicidal rating (Sagittaria pygmaea, L.; [4]) was 0.0 and the MOOVA herbicidal rating [2, 5] was 2.0. The MOOVA herbicidal rating [2, 6] was 3.0, the MOOVA herbicidal rating [2, 7] was 7.0 and the MOOVA herbicidal rating [2, 4] was 9.0. For the same compound, the ECHORC herbicidal rating [3, 5] was 0.0, the ECHORC herbicidal rating [3, 6] was 0.0 and the ECHORC herbicidal rating [3, 7] was 0.0. It also gave an ECHORC herbicidal rating [3, 4] of 0.0, a CYPIR herbicidal rating (Cyperus iria; [5]) of 2.0 and a CYPIR herbicidal rating (Cyperus iria; [6]) of 5.0. The CYPIR herbicidal rating (Cyperus iria; [7]) was 4.0 and the CYPIR herbicidal rating (Cyperus iria; [4]) was 6.0.
For `COC(=O)C=CCOc1ccc(C)cc1-c1nsc2ccc(-n3c(=O)cc(C(F)(F)F)n(C)c3=O)cc12` [Example 188, Methyl 4-{{2-{5-[3,6-dihydro-3-methyl-2,6-dioxo-4-(trifluoromethyl)-1(2H)-pyrimidinyl]-1,2-benzisothiazol-3-yl}-p-tolyl}oxy}-2-butenoate, (E)- and (Z)-], the “herbicidal effect rating, CYPSE” value [1, 16] was 0.0, the “herbicidal effect rating, SAGPY” value (Sagittaria pygmaea, L.; [16]) was 0.0 and the “herbicidal effect rating, SAGPY” value (Sagittaria pygmaea, L.; [17]) was 0.0. For the same compound, the “herbicidal effect rating, SAGPY” value (Sagittaria pygmaea, L.; [18]) was 0.0, the “herbicidal effect rating, SAGPY” value (Sagittaria pygmaea, L.; [19]) was 0.0 and the “herbicidal effect rating, MOOVA” value [2, 16] was 9.0. The “herbicidal effect rating, MOOVA” value [2, 17] was 9.0, the “herbicidal effect rating, MOOVA” value [2, 18] was 9.0 and the “herbicidal effect rating, MOOVA” value [2, 19] was 9.0. The “herbicidal effect rating, ECHORC” value [3, 16] was 0.0, the “herbicidal effect rating, ECHORC” value [3, 17] was 0.0 and the “herbicidal effect rating, ECHORC” value [3, 18] was 2.0. The “herbicidal effect rating, ECHORC” value [3, 19] was 8.0, the “herbicidal effect rating, CYPIR” value (Cyperus iria; [16]) was 0.0 and the “herbicidal effect rating, CYPIR” value (Cyperus iria; [17]) was 0.0. For the same compound, the “herbicidal effect rating, CYPIR” value (Cyperus iria; [18]) was 0.0 and the “herbicidal effect rating, CYPIR” value (Cyperus iria; [19]) was 0.0.
Compound `Cn1c(C(F)(F)F)cc(=O)n(-c2ccc3snc(COC(=O)c4cccnc4Cl)c3c2)c1=O` [Example 480, 2,4(1H,3H)-Pyrimidinedione, 3-[3-(hydroxymethyl)-1,2-benzisothiazol-5-yl]-1-methyl-6-(trifluoromethyl)-, 2-chloronicotinate (ester)] has a CYPSE herbicidal rating [1, 5] of 3.0, a CYPSE herbicidal rating [1, 7] of 3.0 and an SAGPY herbicidal rating (Sagittaria pygmaea, L.; [5]) of 0.0. For the same compound, the SAGPY herbicidal rating (Sagittaria pygmaea, L.; [6]) was 3.0, the SAGPY herbicidal rating (Sagittaria pygmaea, L.; [7]) was 5.0 and the SAGPY herbicidal rating (Sagittaria pygmaea, L.; [4]) was 6.0. It also gave an MOOVA herbicidal rating [2, 5] of 7.0, an MOOVA herbicidal rating [2, 6] of 9.0 and an MOOVA herbicidal rating [2, 7] of 9.0. For the same compound, the MOOVA herbicidal rating [2, 4] was 9.0, the ECHORC herbicidal rating [3, 5] was 0.0 and the ECHORC herbicidal rating [3, 6] was 2.0. The ECHORC herbicidal rating [3, 7] was 5.0, the ECHORC herbicidal rating [3, 4] was 6.0 and the CYPIR herbicidal rating (Cyperus iria; [5]) was 6.0. The CYPIR herbicidal rating (Cyperus iria; [6]) was 9.0, the CYPIR herbicidal rating (Cyperus iria; [7]) was 9.0 and the CYPIR herbicidal rating (Cyperus iria; [4]) was 9.0.
`Cc1ccc(OCC(=O)OCCCCCO[Si](C)(C)C(C)(C)C)c(-c2nsc3ccc(-n4c(=O)cc(C(F)(F)F)n(C)c4=O)cc23)c1` [Example 534, Acetic acid, {{2-{5-[3,6-dihydro-3-methyl-2,6-dioxo-4-(trifluoromethyl)-1(2H)-pyrimidinyl]-1,2-benzisothiazol-3-yl}-p-tolyl}oxy}-, 5-(tert-butyldimethylsiloxy)pentyl ester] was tested, and the “herbicidal effect rating, CYPSE” value [1, 20] was 0.0, the “herbicidal effect rating, CYPSE” value [1, 21] was 0.0 and the “herbicidal effect rating, CYPSE” value [1, 22] was 0.0. The “herbicidal effect rating, CYPSE” value [1, 23] was 0.0, the “herbicidal effect rating, SAGPY” value (Sagittaria pygmaea, L.; [20]) was 0.0 and the “herbicidal effect rating, SAGPY” value (Sagittaria pygmaea, L.; [21]) was 0.0. The “herbicidal effect rating, SAGPY” value (Sagittaria pygmaea, L.; [22]) was 0.0, the “herbicidal effect rating, SAGPY” value (Sagittaria pygmaea, L.; [23]) was 0.0 and the “herbicidal effect rating, MOOVA” value [2, 20] was 4.0. For the same compound, the “herbicidal effect rating, MOOVA” value [2, 21] was 9.0, the “herbicidal effect rating, MOOVA” value [2, 22] was 9.0 and the “herbicidal effect rating, MOOVA” value [2, 23] was 9.0. The “herbicidal effect rating, ECHORC” value [3, 20] was 3.5, the “herbicidal effect rating, ECHORC” value [3, 21] was 4.5 and the “herbicidal effect rating, ECHORC” value [3, 22] was 9.0. The “herbicidal effect rating, ECHORC” value [3, 23] was 9.0, the “herbicidal effect rating, CYPIR” value (Cyperus iria; [20]) was 0.0 and the “herbicidal effect rating, CYPIR” value (Cyperus iria; [21]) was 3.0. For the same compound, the “herbicidal effect rating, CYPIR” value (Cyperus iria; [22]) was 3.0 and the “herbicidal effect rating, CYPIR” value (Cyperus iria; [23]) was 9.0.
In the case of `COc1ccc(C)cc1-c1nsc2cc(Cl)c(-n3c(=O)cc(C(F)(F)F)n(C)c3=O)cc12` [Example 442, 2,4(1H,3H)-Pyrimidinedione, 3-[6-chloro-3-(6-methoxy-m-tolyl)-1,2-benzisothiazol-5-yl]-1-methyl-6-(trifluoromethyl)-], the CYPSE [1, 10] is reported as 0.0, the CYPSE [1, 8] is reported as 0.0 and the CYPSE [1, 11] is reported as 0.0. It also gave a CYPSE [1, 9] of 4.5, an SAGPY (Sagittaria pygmaea, L.; [10]) of 1.3 and an SAGPY (Sagittaria pygmaea, L.; [8]) of 1.7. It also gave an SAGPY (Sagittaria pygmaea, L.; [11]) of 2.0, an SAGPY (Sagittaria pygmaea, L.; [9]) of 4.0 and an MOOVA [2, 10] of 6.0. The MOOVA [2, 8] was 8.3, the MOOVA [2, 11] was 9.0 and the MOOVA [2, 9] was 9.0. The ECHORC [3, 10] was 8.3, the ECHORC [3, 8] was 9.0 and the ECHORC [3, 11] was 9.0. For the same compound, the ECHORC [3, 9] was 9.0, the CYPIR (Cyperus iria; [10]) was 4.3 and the CYPIR (Cyperus iria; [8]) was 6.3. It also gave a CYPIR (Cyperus iria; [11]) of 8.7 and a CYPIR (Cyperus iria; [9]) of 9.0.
